The values that follow come from article doi:10.1101/2022.02.23.481604v2 (biorxiv, 2022).

Holding throughout (experiment): cAMP formation in membranes
(cAMP levels reflect the balance of adenylyl cyclase and phosphodiesterase activity.)

Series [1] addresses mAC3 activated by Gsα (Q227L) (Homo sapiens, UniProt O60266). It counts as biochemical.
In a further series the target is T1, mAC7 (Homo sapiens, UniProt P51828).
T1 sequence (P51828 1-1080): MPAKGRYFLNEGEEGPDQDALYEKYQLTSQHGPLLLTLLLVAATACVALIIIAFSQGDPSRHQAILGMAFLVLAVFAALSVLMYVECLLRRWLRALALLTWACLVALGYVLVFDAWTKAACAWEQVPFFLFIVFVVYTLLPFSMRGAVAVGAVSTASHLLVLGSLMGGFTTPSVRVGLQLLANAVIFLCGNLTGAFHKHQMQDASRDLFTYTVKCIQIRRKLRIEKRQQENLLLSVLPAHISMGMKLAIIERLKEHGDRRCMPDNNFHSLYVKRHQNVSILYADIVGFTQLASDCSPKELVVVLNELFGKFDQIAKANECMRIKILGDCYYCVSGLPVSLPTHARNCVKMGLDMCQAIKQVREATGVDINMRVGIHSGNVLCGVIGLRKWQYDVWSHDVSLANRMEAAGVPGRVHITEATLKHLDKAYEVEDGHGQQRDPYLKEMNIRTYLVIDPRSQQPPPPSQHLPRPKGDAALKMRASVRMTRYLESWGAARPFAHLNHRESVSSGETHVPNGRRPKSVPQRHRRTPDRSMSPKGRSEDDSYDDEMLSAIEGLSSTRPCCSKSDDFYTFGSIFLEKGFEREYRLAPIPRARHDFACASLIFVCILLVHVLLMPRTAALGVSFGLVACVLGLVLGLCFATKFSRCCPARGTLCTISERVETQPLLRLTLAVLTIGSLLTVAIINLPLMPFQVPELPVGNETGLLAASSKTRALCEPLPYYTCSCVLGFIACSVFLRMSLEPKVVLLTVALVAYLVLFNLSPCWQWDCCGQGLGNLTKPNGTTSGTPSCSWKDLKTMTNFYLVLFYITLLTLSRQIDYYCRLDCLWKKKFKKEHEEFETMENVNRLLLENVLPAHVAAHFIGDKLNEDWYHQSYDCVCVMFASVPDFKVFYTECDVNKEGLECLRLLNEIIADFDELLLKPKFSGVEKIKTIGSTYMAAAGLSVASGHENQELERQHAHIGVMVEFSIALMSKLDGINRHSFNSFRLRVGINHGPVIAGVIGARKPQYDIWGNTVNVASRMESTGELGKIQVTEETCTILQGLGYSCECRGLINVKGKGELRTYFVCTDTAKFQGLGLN
It is filed as biochemical.

A further series concerns the target mAC1 (Homo sapiens, UniProt Q08828). It is filed as biochemical.
In series [2] the target is mAC6 activated by Gsα (Q227L) (Homo sapiens, UniProt O43306). It is filed as biochemical.
The target in series [3] is mAC7 activated by Gsα (Q227L) (Homo sapiens, UniProt P51828). It counts as biochemical.
Series [4] addresses mAC9 activated by Gsα (Q227L) (Homo sapiens, UniProt O60503). It is filed as biochemical.
Substrate in series [5]: Nc1ncnc2c1ncn2[C@@H]1O[C@H](COP(=O)(O)OP(=O)(O)OP(=O)(O)O)[C@@H](O)[C@H]1O
It is filed as biochemical, Homo sapiens. The settings on record: without SDPA, Gsα presence inferred from Vmax, Mg2+, pH 7.5.

Structures can show the parent of a compound that is named as a salt.

The EC50 is the concentration that produces a half-maximal response. Read a high EC50 as a need for much substance. For orientation: Km means the concentration of substrate that gives half-maximal velocity.

Chain of mAC3 activated by Gsα (Q227L) (P63092 2-394 Q227L partner, one chain of several): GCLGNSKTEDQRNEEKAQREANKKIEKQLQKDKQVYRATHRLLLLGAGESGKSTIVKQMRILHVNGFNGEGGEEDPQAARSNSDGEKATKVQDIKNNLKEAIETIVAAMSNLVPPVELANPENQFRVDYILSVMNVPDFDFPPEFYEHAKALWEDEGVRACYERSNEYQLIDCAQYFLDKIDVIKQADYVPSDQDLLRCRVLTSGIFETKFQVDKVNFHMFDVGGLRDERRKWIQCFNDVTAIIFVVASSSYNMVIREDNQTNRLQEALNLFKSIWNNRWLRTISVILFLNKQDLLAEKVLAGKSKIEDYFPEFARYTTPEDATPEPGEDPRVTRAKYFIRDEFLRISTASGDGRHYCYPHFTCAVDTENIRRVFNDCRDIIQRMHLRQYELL
Chain of mAC9 activated by Gsα (Q227L) (O60503 whole entry, stated change not applied): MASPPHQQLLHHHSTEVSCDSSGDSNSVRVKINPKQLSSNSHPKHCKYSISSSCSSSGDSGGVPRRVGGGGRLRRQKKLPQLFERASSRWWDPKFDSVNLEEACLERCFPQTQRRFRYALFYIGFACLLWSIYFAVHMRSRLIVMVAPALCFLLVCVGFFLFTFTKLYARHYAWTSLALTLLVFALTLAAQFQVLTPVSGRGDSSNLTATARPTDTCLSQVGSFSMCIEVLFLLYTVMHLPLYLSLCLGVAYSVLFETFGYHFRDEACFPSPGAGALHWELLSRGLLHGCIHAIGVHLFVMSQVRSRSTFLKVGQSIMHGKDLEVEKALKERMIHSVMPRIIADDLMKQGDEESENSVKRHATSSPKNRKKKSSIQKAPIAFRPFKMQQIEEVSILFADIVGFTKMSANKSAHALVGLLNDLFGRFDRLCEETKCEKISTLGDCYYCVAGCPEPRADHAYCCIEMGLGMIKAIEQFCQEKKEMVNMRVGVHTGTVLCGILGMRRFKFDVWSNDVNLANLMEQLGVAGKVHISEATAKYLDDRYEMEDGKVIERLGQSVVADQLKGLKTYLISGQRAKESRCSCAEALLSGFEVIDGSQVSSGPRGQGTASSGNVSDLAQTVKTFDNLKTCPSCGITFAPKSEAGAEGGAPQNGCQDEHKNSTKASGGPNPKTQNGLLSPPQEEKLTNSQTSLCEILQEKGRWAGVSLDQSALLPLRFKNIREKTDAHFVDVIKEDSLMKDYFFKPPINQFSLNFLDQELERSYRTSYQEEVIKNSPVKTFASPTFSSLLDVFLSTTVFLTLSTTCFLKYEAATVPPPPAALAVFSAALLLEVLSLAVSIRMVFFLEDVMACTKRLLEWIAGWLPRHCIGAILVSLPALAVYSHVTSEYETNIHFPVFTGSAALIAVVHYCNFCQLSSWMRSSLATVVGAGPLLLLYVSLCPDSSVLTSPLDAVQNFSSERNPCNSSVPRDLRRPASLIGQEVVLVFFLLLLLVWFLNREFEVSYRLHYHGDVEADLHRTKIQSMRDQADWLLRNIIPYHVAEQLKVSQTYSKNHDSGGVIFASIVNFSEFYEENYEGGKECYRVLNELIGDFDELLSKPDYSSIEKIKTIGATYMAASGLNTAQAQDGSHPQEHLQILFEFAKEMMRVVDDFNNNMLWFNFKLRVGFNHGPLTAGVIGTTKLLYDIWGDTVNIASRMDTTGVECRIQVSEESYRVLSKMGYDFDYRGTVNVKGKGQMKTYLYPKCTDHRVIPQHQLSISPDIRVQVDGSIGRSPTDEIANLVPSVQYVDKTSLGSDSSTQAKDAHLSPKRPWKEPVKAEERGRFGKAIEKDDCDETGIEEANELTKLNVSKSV
Chain of mAC9 activated by Gsα (Q227L) (P63092 2-394 Q227L partner): as the sequence (P63092 2-394 Q227L partner, one chain of several) above
Chain of mAC7 activated by Gsα (Q227L) (P63092 2-394 Q227L partner, one chain of several): as above
Chain of mAC1 (Q08828 whole entry): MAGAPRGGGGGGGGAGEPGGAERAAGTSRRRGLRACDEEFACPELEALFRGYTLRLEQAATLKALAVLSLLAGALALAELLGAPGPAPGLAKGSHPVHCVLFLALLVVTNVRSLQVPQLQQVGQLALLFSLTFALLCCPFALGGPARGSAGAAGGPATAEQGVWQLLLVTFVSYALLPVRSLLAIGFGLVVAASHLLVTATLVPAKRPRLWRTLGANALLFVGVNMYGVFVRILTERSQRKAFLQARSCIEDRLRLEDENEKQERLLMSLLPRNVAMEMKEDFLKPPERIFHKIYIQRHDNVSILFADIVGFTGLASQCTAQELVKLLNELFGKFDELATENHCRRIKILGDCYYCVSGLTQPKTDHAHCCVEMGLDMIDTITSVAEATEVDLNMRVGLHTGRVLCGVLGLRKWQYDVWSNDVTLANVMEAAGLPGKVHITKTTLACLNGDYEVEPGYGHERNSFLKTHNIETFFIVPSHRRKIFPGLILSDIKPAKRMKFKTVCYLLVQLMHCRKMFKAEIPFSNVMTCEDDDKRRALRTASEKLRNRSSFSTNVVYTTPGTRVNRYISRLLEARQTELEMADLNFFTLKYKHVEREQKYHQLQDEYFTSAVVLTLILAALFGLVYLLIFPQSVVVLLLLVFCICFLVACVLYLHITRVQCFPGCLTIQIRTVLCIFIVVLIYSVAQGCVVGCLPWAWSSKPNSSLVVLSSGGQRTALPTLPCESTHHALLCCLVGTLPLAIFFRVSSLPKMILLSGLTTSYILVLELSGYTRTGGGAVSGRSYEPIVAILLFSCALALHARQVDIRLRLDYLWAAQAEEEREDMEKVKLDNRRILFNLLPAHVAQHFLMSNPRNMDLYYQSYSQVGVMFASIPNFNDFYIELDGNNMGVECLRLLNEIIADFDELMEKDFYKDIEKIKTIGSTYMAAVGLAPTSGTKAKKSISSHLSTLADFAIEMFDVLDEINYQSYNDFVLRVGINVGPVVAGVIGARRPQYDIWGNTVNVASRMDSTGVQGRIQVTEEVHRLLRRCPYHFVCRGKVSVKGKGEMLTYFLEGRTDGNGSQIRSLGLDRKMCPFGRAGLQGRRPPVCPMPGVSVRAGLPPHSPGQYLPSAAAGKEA
Chain of mAC6 activated by Gsα (Q227L) (O43306 whole entry, stated change not applied): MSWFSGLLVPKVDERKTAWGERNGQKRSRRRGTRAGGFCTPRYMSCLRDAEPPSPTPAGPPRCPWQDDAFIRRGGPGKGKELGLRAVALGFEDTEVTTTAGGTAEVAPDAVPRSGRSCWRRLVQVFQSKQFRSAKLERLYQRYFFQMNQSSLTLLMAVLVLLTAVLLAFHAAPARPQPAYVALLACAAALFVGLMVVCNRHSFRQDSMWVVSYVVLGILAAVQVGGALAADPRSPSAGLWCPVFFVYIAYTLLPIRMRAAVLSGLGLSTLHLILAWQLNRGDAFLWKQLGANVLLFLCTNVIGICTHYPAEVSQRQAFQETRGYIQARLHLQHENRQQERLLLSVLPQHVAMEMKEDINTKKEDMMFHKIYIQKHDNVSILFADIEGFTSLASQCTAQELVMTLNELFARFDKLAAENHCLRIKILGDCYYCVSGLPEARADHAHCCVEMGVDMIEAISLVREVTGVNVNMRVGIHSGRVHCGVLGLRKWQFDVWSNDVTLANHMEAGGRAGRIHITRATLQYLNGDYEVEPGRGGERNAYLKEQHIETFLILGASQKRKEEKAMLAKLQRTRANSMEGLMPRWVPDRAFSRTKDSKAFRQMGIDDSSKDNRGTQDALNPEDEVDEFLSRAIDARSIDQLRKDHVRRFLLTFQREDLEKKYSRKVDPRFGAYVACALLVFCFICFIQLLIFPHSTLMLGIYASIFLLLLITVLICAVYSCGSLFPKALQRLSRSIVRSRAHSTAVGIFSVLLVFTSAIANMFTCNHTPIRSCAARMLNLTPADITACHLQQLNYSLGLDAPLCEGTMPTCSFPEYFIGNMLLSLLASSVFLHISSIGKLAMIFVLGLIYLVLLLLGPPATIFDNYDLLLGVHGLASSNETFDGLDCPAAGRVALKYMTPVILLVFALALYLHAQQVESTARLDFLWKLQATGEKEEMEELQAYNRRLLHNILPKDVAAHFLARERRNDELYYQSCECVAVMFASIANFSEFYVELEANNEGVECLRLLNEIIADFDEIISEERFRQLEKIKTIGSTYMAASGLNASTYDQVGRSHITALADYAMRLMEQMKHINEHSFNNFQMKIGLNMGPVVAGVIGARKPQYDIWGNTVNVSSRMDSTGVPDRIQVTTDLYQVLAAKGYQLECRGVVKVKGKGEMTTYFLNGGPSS
Chain of mAC6 activated by Gsα (Q227L) (P63092 2-394 Q227L partner): as the sequence (P63092 2-394 Q227L partner, one chain of several) above

In series [1], `CC/C=C\C/C=C\C/C=C\C/C=C\C/C=C\C/C=C\CCC(=O)OC[C@H](COP(=O)(O)O)OC(=O)CC/C=C\C/C=C\C/C=C\C/C=C\C/C=C\C/C=C\CC` [DDPA, 1,2-didocosahexaenoyl-sn-glycero-3-phosphate (sodium salt)] registered an EC50 of 1400 nM. In other words, the single-digit micromolar range.

Molecule `CC/C=C\C/C=C\C/C=C\C/C=C\C/C=C\C/C=C\CCC(=O)O[C@H](COC(=O)CCCCCCCCCCCCCCC)COP(=O)(O)O` [PDPA, 1-palmitoyl-2-docosahexaenoyl-sn-glycero-3-phosphate (sodium salt)] showed an EC50 in series [1] of 1300 nM.

As to `C=C[C@@]1(C)CC(=O)[C@]2(O)[C@@]3(C)[C@@H](O)CCC(C)(C)[C@@H]3[C@H](O)[C@H](OC(C)=O)[C@@]2(C)O1` [forskolin], the results for the EC50 on mAC7 and on mAC1 were 512 µM and 2000 nM, respectively.

Regarding `CCCCC/C=C\C/C=C\C/C=C\C/C=C\CCCC(=O)O[C@H](COC(=O)CCCCCCCCCCCCCCCCC)COP(=O)(O)O` [SAPA, 1-stearoyl-2-arachidonoyl-sn-glycero-3-phosphate (sodium salt)], the EC50 in series [1] is 4800 nM. That is a single-digit micromolar value.

As for `CC/C=C\C/C=C\C/C=C\C/C=C\C/C=C\C/C=C\CCC(=O)O[C@H](COC(=O)CCCCCCCCCCCCCCCCC)COP(=O)(O)O` [SDPA, 1-stearoyl-2-docosahexaenoyl-sn-glycero-3-phosphate (sodium salt)], the EC50 came to 700 nM in series [2], 700 nM in series [3], 700 nM in series [4] and 900 nM in series [1].

The molecule `CC/C=C\C/C=C\C/C=C\C/C=C\C/C=C\C/C=C\CCC(=O)O[C@H](COC(=O)CCCCCCCCCCCCCCCCC)COP(=O)(O)OC[C@H](N)C(=O)O` [SDPS, 1-stearoyl-2-docosahexaenoyl-sn-glycero-3-phospho-L-serine] showed an EC50 in series [1] of 1200 nM.

B1: mAC3 activated by Gsα (Q227L) (Homo sapiens) (protein)
chain: MPRNQGFSEPEYSAEYSAEYSVSLPSDPDRGVGRTHEISVRNSGSCLCLPRFMRLTFVPESLENLYQTYFKRQRHETLLVLVVFAALFDCYVVVMCAVVFSSDKLASLAVAGIGLVLDIILFVLCKKGLLPDRVTRRVLPYVLWLLITAQIFSYLGLNFARAHAASDTVGWQVFFVFSFFITLPLSLSPIVIISVVSCVVHTLVLGVTVAQQQQEELKGMQLLREILANVFLYLCAIAVGIMSYYMADRKHRKAFLEARQSLEVKMNLEEQSQQQENLMLSILPKHVADEMLKDMKKDESQKDQQQFNTMYMYRHENVSILFADIVGFTQLSSACSAQELVKLLNELFARFDKLAAKYHQLRIKILGDCYYCICGLPDYREDHAVCSILMGLAMVEAISYVREKTKTGVDMRVGVHTGTVLGGVLGQKRWQYDVWSTDVTVANKMEAGGIPGRVHISQSTMDCLKGEFDVEPGDGGSRCDYLEEKGIETYLIIASKPEVKKTATQNGLNGSALPNGAPASSKSSSPALIETKEPNGSAHSSGSTSEKPEEQDAQADNPSFPNPRRRLRLQDLADRVVDASEDEHELNQLLNEALLERESAQVVKKRNTFLLSMRFMDPEMETRYSVEKEKQSGAAFSCSCVVLLCTALVEILIDPWLMTNYVTFMVGEILLLILTICSLAAIFPRAFPKKLVAFSTWIDRTRWARNTWAMLAIFILVMANVVDMLSCLQYYTGPSNATAGMETEGSCLENPKYYNYVAVLSLIATIMLVQVSHMVKLTLMLLVAGAVATINLYAWRPVFDEYDHKRFREHDLPMVALEQMQGFNPGLNGTDRLPLVPSKYSMTVMVFLMMLSFYYFSRHVEKLARTLFLWKIEVHDQKERVYEMRRWNEALVTNMLPEHVARHFLGSKKRDEELYSQTYDEIGVMFASLPNFADFYTEESINNGGIECLRFLNEIISDFDSLLDNPKFRVITKIKTIGSTYMAASGVTPDVNTNGFASSNKEDKSERERWQHLADLADFALAMKDTLTNINNQSFNNFMLRIGMNKGGVLAGVIGARKPHYDIWGNTVNVASRMESTGVMGNIQVVEETQVILREYGFRFVRRGPIFVKGKGELLTFFLKGRDKLATFPNGPSVTLPHQVVDNS
As for B1, the Km in series [5] came to 0.1 mM.
